# Laboratory results published in paper PMC9137512 (Antibiotics, 2022).
# Assays:
# [1] = cited from earlier work
# Description: Efficacy is associated with the area under the concentration-time curve (AUC) divided by the minimal inhibitory concentration (MIC). […] Standard in vitro me ...
# [2] = Free dalbavancin in patient serum by solid phase extraction with a centrifugal device (Nanosep); format: in vivo, human; conditions: for fcmax(d1) *: day 1 peak; for fcmax(d1) * / fcmin(d8) *: free concentration determined by solid phase extraction (Nanosep); for fcmin(d8) *: day 8 trough; for fAUC(d8) *: from free concentration by solid phase extraction (Nanosep)
# Procedure: The AUC was calculated using the trapezoidal rule.
# clinical = conditions: for level at 192 h: iv
# Procedure: The samples were subsequently analyzed according to the described method. […] The patients’ estimated glomerular filtration (eGFR) was calculated by the chronic kidney disease epidemiology collaboration equation (CKD–EPI). The AUC was calculated using the trapezoidal rule.
# (§1) Subsequently, samples were mixed for 10 s, stored in an ultrasonic bath for 10 min at 40 °C, then centrifuged at 8000× g for 5 min. Next, 100 µL of the resulting supernatant was further diluted with 500 µL water with 0.1% formic acid. […] Details are described in the Supplementary Materials (Figures S1–S3).
# An aliquot of 20 µL was injected onto the HPLC–UV system equipped with a diode array detector (Nexera-I 3D plus, Shimadzu, Duisburg, Germany). Chromatographic analysis was performed using a reversed phase column Shim-pack XR-ODS III with 2.2 µm particle size (150 mm × 2 mm, Shimadzu, Duisburg, Germany) in combination with a column guard (Shim-pack GISS-H (G) C18, 3 µm; 10 mm × 2.1 mm, Shimadzu, Duisburg, Germany). Separation was performed using a gradient of 0.1% formic acid in acetonitrile and 0.1% formic acid in water with a flow rate of 0.35 mL/min. The autosampler and column were set at temperatures of 10 °C and 45 °C, respectively.
# [3] = Stability of dalbavancin in human serum; conditions: serum samples, HPLC-UV
# Description: (§2) For stability testing, two samples were thawed out and subsequently analyzed. Stability was defined by the time for which samples remained a concentration of > 90% of their baseline concentrations.
# [4] = Stability of aqueous stock solution; format: physicochemical; conditions: HPLC-UV
# Description: as §2
# [5] = Free concentration and protein binding in spiked human serum samples (Table S5)
# Procedure: as §1
# Table S5. […] In order to evaluate the
# (a) Spiked human serum samples of 14 patients (8 critically ill and 6 non-critically ill) after calibration with sheep serum.
# (b) Spiked human serum samples of 9 critically ill patients and 6 healthy volunteers after calibration with human serum.
# [6] = S5a, serum of patient 2 (critically ill) spiked 200 mg/L, measured c 207 mg/L, calibration with sheep serum
# [7] = S5a, serum of patient 3 (critically ill) spiked 50 mg/L, measured c 51.2 mg/L, calibration with sheep serum
# [8] = S5b, serum of 26 (healthy volunteer) spiked 200 mg/L, measured c 219 mg/L, calibration with human serum
# [9] = S5b, serum of 27 (healthy volunteer) spiked 50 mg/L, measured c 52.5 mg/L, calibration with human serum
compound,measurement,setting,value
"CN[C@H]1C(=O)N[C@@H]2Cc3ccc(cc3)Oc3cc4cc(c3O[C@@H]3O[C@H](C(=O)O)[C@@H](O)[C@H](O)[C@H]3NC(=O)CCCCCCCCC(C)C)Oc3ccc(cc3Cl)[C@@H](O)[C@@H]3NC(=O)[C@H](NC(=O)[C@@H]4NC(=O)[C@@H](NC2=O)c2cc(cc(O)c2Cl)Oc2cc1ccc2O)c1ccc(O)c(c1)-c1c(O[C@H]2O[C@H](CO)[C@@H](O)[C@H](O)[C@@H]2O)cc(O)cc1[C@@H](C(=O)NCCCN(C)C)NC3=O [dalbavancin, Dalbavancin]",elimination half-life,[1]; approximately,> 14 days
same,clearance,[1],0.05 L/h
same,maximum free fraction at total concentrations below the LOQ of 12.5 mg/L,[2]; in accordance with the higher protein binding observed,0.4 mg/L
same,fcmax(d1) *,"[2]; patient 1, 1500 mg",5.4 mg/L
same,fcmin(d8) *,"[2]; patient 1, 1500 mg",1.3 mg/L
same,fAUC(d8) *,"[2]; patient 1, 1500 mg",31200 ng·h/mL
same,fcmax(d1) *,"[2]; patient 2, 1500 mg",6.4 mg/L
same,fcmin(d8) *,"[2]; patient 2, 1500 mg",1.0 mg/L
same,fAUC(d8) *,"[2]; patient 2, 1500 mg",24000 ng·h/mL
same,fcmax(d1) *,"[2]; patient 3, 1500 mg",6.7 mg/L
same,fcmin(d8) *,"[2]; patient 3, 1500 mg",<1.0 mg/L
same,fAUC(d8) *,"[2]; patient 3, 1500 mg",<24000 ng·h/mL
same,Cmax,"clinical; human, in vivo, 1500 mg, cmax(d1)",278000 ng/mL
same,level at 192 h,"clinical; human, in vivo, 1500 mg, cmin(d8)",44900 ng/mL
same,level at 192 h,"clinical; human, in vivo, trough concentrations on day 8 before redosing",23000 to 44900 ng/mL
same,peak concentrations after the initial dosing,"clinical; range of three cardiologic patients, total serum",201 to 278 mg/L
same,stability time (>90% of baseline concentration),[3]; frozen at −20 °C,at least 1 month
same,stability time (>90% of baseline concentration),[3]; frozen at −80 °C,at least 12 months
same,stability time (>90% of baseline concentration),[3]; refrigerated (2–8 °C),at least 96 h
same,stability time (>90% of baseline concentration),[3]; room temperature,≥ 48 h
same,stability time (>90% of baseline concentration),[4]; frozen at −80 °C,at least 12 months
same,stability time (>90% of baseline concentration),[4]; refrigerated (2–8 °C),at least 3 months
same,fc,"[5]; S5a, serum of patient 1 (critically ill) spiked 50 mg/L, measured c 53.5 mg/L, Nanosep SPE, HPLC-UV, calibration with sheep serum",1.4 mg/L
same,fc,"[5]; S5a, serum of patient 1 (critically ill) spiked 200 mg/L, measured c 201 mg/L, calibration with sheep serum",7.6 mg/L
same,fc,"[5]; S5a, serum of patient 2 (critically ill) spiked 50 mg/L, measured c 53.6 mg/L, calibration with sheep serum",1.7 mg/L
same,PB,[5]; [6],96%
same,fc,[5]; [6],9.0 mg/L
same,PB,[5]; [7],96%
same,fc,[5]; [7],1.9 mg/L
same,fc,"[5]; S5a, serum of patient 3 (critically ill) spiked 200 mg/L, measured c 209 mg/L, calibration with sheep serum",9.1 mg/L
same,fc,"[5]; S5a, serum of patient 4 (critically ill) spiked 50 mg/L, measured c 54.2 mg/L, calibration with sheep serum",1.6 mg/L
same,fc,"[5]; S5a, serum of patient 4 (critically ill) spiked 200 mg/L, measured c 212 mg/L, calibration with sheep serum",7.7 mg/L
same,fc,"[5]; S5a, serum of patient 5 (critically ill) spiked 50 mg/L, measured c 53.0 mg/L, calibration with sheep serum",2.1 mg/L
same,fc,"[5]; S5a, serum of patient 5 (critically ill) spiked 200 mg/L, measured c 203 mg/L, calibration with sheep serum",9.5 mg/L
same,fc,"[5]; S5a, serum of patient 6 (critically ill) spiked 50 mg/L, measured c 50.4 mg/L, calibration with sheep serum",1.5 mg/L
same,fc,"[5]; S5a, serum of patient 6 (critically ill) spiked 200 mg/L, measured c 204 mg/L, calibration with sheep serum",9.2 mg/L
same,fc,"[5]; S5a, serum of patient 7 (critically ill) spiked 50 mg/L, measured c 49.1 mg/L, calibration with sheep serum",2.4 mg/L
same,fc,"[5]; S5a, serum of patient 7 (critically ill) spiked 200 mg/L, measured c 195 mg/L, calibration with sheep serum",10.2 mg/L
same,fc,"[5]; S5a, serum of patient 8 (critically ill) spiked 50 mg/L, measured c 54.3 mg/L, calibration with sheep serum",1.8 mg/L
same,fc,"[5]; S5a, serum of patient 8 (critically ill) spiked 200 mg/L, measured c 201 mg/L, calibration with sheep serum",8.7 mg/L
same,fc,"[5]; S5a, serum of patient 9 (non-critically ill) spiked 50 mg/L, measured c 40.0 mg/L, calibration with sheep serum",< 1.0 mg/L
same,fc,"[5]; S5a, serum of patient 9 (non-critically ill) spiked 200 mg/L, measured c 177 mg/L, calibration with sheep serum",3.7 mg/L
same,fc,"[5]; S5a, serum of patient 10 (non-critically ill) spiked 50 mg/L, measured c 47.8 mg/L, calibration with sheep serum",< 1.0 mg/L
same,fc,"[5]; S5a, serum of patient 10 (non-critically ill) spiked 200 mg/L, measured c 180 mg/L, calibration with sheep serum",4.0 mg/L
same,fc,"[5]; S5a, serum of patient 11 (non-critically ill) spiked 50 mg/L, measured c 38.6 mg/L, calibration with sheep serum",< 1.0 mg/L
same,fc,"[5]; S5a, serum of patient 11 (non-critically ill) spiked 200 mg/L, measured c 177 mg/L, calibration with sheep serum",3.5 mg/L
same,fc,"[5]; S5a, serum of patient 12 (non-critically ill) spiked 50 mg/L, measured c 42.6 mg/L, calibration with sheep serum",< 1.0 mg/L
same,fc,"[5]; S5a, serum of patient 12 (non-critically ill) spiked 200 mg/L, measured c 195 mg/L, calibration with sheep serum",3.9 mg/L
same,fc,"[5]; S5a, serum of patient 13 (non-critically ill) spiked 50 mg/L, measured c 53.0 mg/L, calibration with sheep serum",1.1 mg/L
same,fc,"[5]; S5a, serum of patient 13 (non-critically ill) spiked 200 mg/L, measured c 214 mg/L, calibration with sheep serum",6.3 mg/L
same,fc,"[5]; S5a, serum of patient 14 (non-critically ill) spiked 50 mg/L, measured c 50.0 mg/L, calibration with sheep serum",1.1 mg/L
same,fc,"[5]; S5a, serum of patient 14 (non-critically ill) spiked 200 mg/L, measured c 208 mg/L, calibration with sheep serum",4.6 mg/L
same,fc,"[5]; S5b, serum of 24 (healthy volunteer) spiked 50 mg/L, measured c 46.1 mg/L, calibration with human serum",1.6 mg/L
same,fc,"[5]; S5b, serum of 24 (healthy volunteer) spiked 200 mg/L, measured c 184 mg/L, calibration with human serum",4.6 mg/L
same,fc,"[5]; S5b, serum of 25 (healthy volunteer) spiked 50 mg/L, measured c 45.8 mg/L, calibration with human serum",1.6 mg/L
same,fc,"[5]; S5b, serum of 25 (healthy volunteer) spiked 200 mg/L, measured c 197 mg/L, calibration with human serum",5.8 mg/L
same,fc,"[5]; S5b, serum of 26 (healthy volunteer) spiked 50 mg/L, measured c 52.6 mg/L, calibration with human serum",1.6 mg/L
same,PB,[5]; [8],97%
same,fc,[5]; [8],5.2 mg/L
same,PB,[5]; [9],97%
same,fc,[5]; [9],1.7 mg/L
same,PB,"[5]; S5b, serum of 27 (healthy volunteer) spiked 200 mg/L, measured c 220 mg/L, calibration with human serum",97%
